Patent US12655116B2, “Substituted isophthalic acid diamides” (Bayer Aktiengesellschaft, priority 2020, dated 2026)

How the values were obtained:
VERPE [1] = assay: Post-emergence herbicidal action against VERPE; assay type: in vivo, Veronica persica; settings: Veronica persica, 504 h, 20 g/ha
Outline: (§1)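 Percent herbicidal action is rated by eye about 3 weeks after treatment against untreated controls, where 100% means dead plants and 0% means like controls. Plants in sandy loam are sprayed on green parts at the one-leaf stage with aqueous WP or EC preparations at 600 to 800 l/ha plus 0.2% wetting agent.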

ABUTH [2] = assay: Post-emergence herbicidal action against ABUTH; assay type: in vivo, Abutilon theophrasti; settings: Abutilon theophrasti, 504 h, visual assessment about 3 weeks after treatment vs untreated controls; for pest or weed control at 20 g/ha: dosage 20 g/ha
Outline: as §1

HORMU [3] = assay: Pre-emergence herbicidal action against HORMU; assay type: in vivo, Hordeum murinum; settings: Hordeum murinum, 504 h; 80 g/ha, pre-emergence
Outline: (§2)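 Seeds sown in sandy loam, soil-covered; compound sprayed on soil surface pre-emergence. Application: WP/EC, 600–800 l/ha, 0.2% wetting agent. Readout: visual % damage at 3 weeks.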

LOLRI [4] = assay: Pre-emergence herbicidal action against LOLRI; assay type: in vivo, Lolium rigidum; settings: Lolium rigidum, 504 h, 80 g/ha
Outline: as §2

POLCO = assay: Post-emergence herbicidal action against POLCO; assay type: in vivo, Polygonum convolvulus; settings: Fallopia convolvulus, 504 h, dosage 20 g/ha
Outline: as §1

STEME [5] = assay: Pre-emergence herbicidal action against STEME; assay type: in vivo, Stellaria media; settings: Stellaria media, 504 h
Outline: as §2

AMARE [6] = assay: Pre-emergence herbicidal action against AMARE; assay type: in vivo, Amaranthus retroflexus; settings: Amaranthus retroflexus, 504 h, scored visually after 3 weeks vs untreated controls, 100% = plants have died, 0% = like control plants
Outline: as §2

STEME [7] = assay: Post-emergence herbicidal action against STEME; assay type: in vivo, Stellaria media; settings: Stellaria media, 504 h
Outline: as §1

VERPE [8] = assay: Pre-emergence herbicidal action against VERPE; assay type: in vivo, Veronica persica; settings: Veronica persica, 504 h; for pest or weed control at 80 g/ha: dosage 80 g/ha
Outline: as §2

SETVI [9] = assay: Post-emergence herbicidal action against SETVI; assay type: in vivo, Setaria viridis; settings: Setaria viridis, 504 h; for pest or weed control at 20 g/ha: dosage 20 g/ha
Outline: as §1

AMARE [10] = assay: Post-emergence herbicidal action against AMARE; assay type: in vivo, Amaranthus retroflexus; settings: Amaranthus retroflexus, 504 h, 20 g/ha, visual assessment about 3 weeks after treatment, 100% = plants have died, 0% = like control plants
Outline: as §1

ECHCG [11] = assay: Post-emergence herbicidal action against ECHCG; assay type: in vivo, Echinochloa crus-galli; settings: Echinochloa crus-galli, 504 h, dosage 20 g/ha
Outline: as §1

VIOTR [12] = assay: Post-emergence herbicidal action against VIOTR; assay type: in vivo, Viola tricolor; settings: Viola tricolor, 504 h
Outline: as §1

ALOMY [13] = assay: Post-emergence herbicidal action against ALOMY; assay type: in vivo, Alopecurus myosuroides; settings: Alopecurus myosuroides, 504 h, visual assessment about 3 weeks after treatment vs untreated controls; for pest or weed control at 20 g/ha: dosage 20 g/ha
Outline: as §1

MATIN [14] = assay: Pre-emergence herbicidal action against MATIN; assay type: in vivo, Matricaria inodora; settings: Tripleurospermum inodorum, 504 h; for pest or weed control at 80 g/ha: dosage 80 g/ha
Outline: as §2

SETVI [15] = assay: Pre-emergence herbicidal action against SETVI; assay type: in vivo, Setaria viridis; settings: Setaria viridis, 504 h; for pest or weed control at 20 g/ha: dosage 20 g/ha; for pest or weed control at 80 g/ha: dosage 80 g/ha
Outline: as §2

ABUTH [16] = assay: Pre-emergence herbicidal action against ABUTH; assay type: in vivo, Abutilon theophrasti; settings: Abutilon theophrasti, 504 h; for pest or weed control at 80 g/ha: scored visually after 3 weeks vs untreated controls (100% = plants have died, 0% = like control plants)
Outline: as §2

DIGSA [17] = assay: Post-emergence herbicidal action against DIGSA; assay type: in vivo, Digitaria sanguinalis; settings: Digitaria sanguinalis, 504 h
Outline: as §1

PHBPU [18] = assay: Pre-emergence herbicidal action against PHBPU; assay type: in vivo, Pharbitis purpurea; settings: Ipomoea purpurea, 504 h, dosage 80 g/ha
Outline: as §2

ECHCG [19] = assay: Pre-emergence herbicidal action against ECHCG; assay type: in vivo, Echinochloa crus-galli; settings: Echinochloa crus-galli, 504 h, 80 g/ha
Outline: as §2

MATIN [20] = assay: Post-emergence herbicidal action against MATIN; assay type: in vivo, Matricaria inodora; settings: Tripleurospermum inodorum, 504 h
Outline: as §1

DIGSA [21] = assay: Pre-emergence herbicidal action against DIGSA; assay type: in vivo, Digitaria sanguinalis; settings: Digitaria sanguinalis, 504 h
Outline: as §2

AVEFA [22] = assay: Pre-emergence herbicidal action against AVEFA; assay type: in vivo, Avena fatua; settings: Avena fatua, 504 h; 80 g/ha, pre-emergence
Outline: as §2

ALOMY [23] = assay: Pre-emergence herbicidal action against ALOMY; assay type: in vivo, Alopecurus myosuroides; settings: Alopecurus myosuroides, 504 h, pre-emergence; for pest or weed control at 80 g/ha: scored visually after 3 weeks vs untreated controls (100% = plants have died, 0% = like control plants)
Outline: as §2

HORMU [24] = assay: Post-emergence herbicidal action against HORMU; assay type: in vivo, Hordeum murinum; settings: Hordeum murinum, 504 h, dosage 20 g/ha
Outline: as §1

VIOTR [25] = assay: Pre-emergence herbicidal action against VIOTR; assay type: in vivo, Viola tricolor; settings: Viola tricolor, 504 h; for pest or weed control at 20 g/ha: dosage 20 g/ha; for pest or weed control at 80 g/ha: dosage 80 g/ha
Outline: as §2

AVEFA [26] = assay: Post-emergence herbicidal action against AVEFA; assay type: in vivo, Avena fatua; settings: Avena fatua, 504 h, 20 g/ha, visual assessment about 3 weeks after treatment, 100% = plants have died, 0% = like control plants
Outline: as §1

PHBPU [27] = assay: Post-emergence herbicidal action against PHBPU; assay type: in vivo, Pharbitis purpurea; settings: Ipomoea purpurea, 504 h, dosage 20 g/ha
Outline: as §1

LOLRI [28] = assay: Post-emergence herbicidal action against LOLRI; assay type: in vivo, Lolium rigidum; settings: Lolium rigidum, 504 h, dosage 20 g/ha
Description: Seeds of monocotyledonous and dicotyledonous weed and crop plants are laid out in sandy loam soil in wood-fiber pots, covered with soil and cultivated in a greenhouse under good growth conditions. 2 to 3 weeks after sowing, the test plants are treated at the one-leaf stage. The compounds of the invention, formulated in the form of wettable powders (WP) or as emulsion concentrates (EC), are then sprayed onto the green parts of the plants in the form of an aqueous suspension or emulsion at a water application rate equivalent to 600 to 800 l/ha, with addition of 0.2% wetting agent. After the test plants have been left to stand in the greenhouse under optimal growth conditions for about 3 weeks, the action of the preparations is assessed visually in comparison to untreated controls (herbicidal action in percent (%): 100% activity=the plants have died, 0% activity=like control plants). […] The tables below illustrate, in an illustrative manner, the post-emergence herbicidal action of the compounds of the invention, the herbicidal activity being stated in percent.

Structure (SMILES): Cc1c(C(=O)Nc2nnnn2C)ccc(C(F)(F)F)c1C(=O)NC1CC1 [Example 1-27]
- pest or weed control at 20 g/ha (VERPE [1]): 100%
- pest or weed control at 5 g/ha (ABUTH [2]; dosage 5 g/ha): 100%
- pest or weed control at 20 g/ha (ABUTH [2]): 100%
- pest or weed control at 80 g/ha (HORMU [3]): 80%
- pest or weed control at 80 g/ha (LOLRI [4]): 80%
- pest or weed control at 20 g/ha (POLCO): 90%
- pest or weed control at 20 g/ha (STEME [5]; dosage 20 g/ha): 90%
- pest or weed control at 80 g/ha (STEME [5]; dosage 80 g/ha): 100%
- pest or weed control at 20 g/ha (AMARE [6]): 100%
- pest or weed control at 80 g/ha (AMARE [6]): 100%
- pest or weed control at 20 g/ha (STEME [7]; 20 g/ha): 100%
- pest or weed control at 5 g/ha (STEME [7]; dosage 5 g/ha): 100%
- pest or weed control at 20 g/ha (VERPE [8]; dosage 20 g/ha): 80%
- pest or weed control at 80 g/ha (VERPE [8]): 90%
- pest or weed control at 5 g/ha (SETVI [9]; dosage 5 g/ha): 100%
- pest or weed control at 20 g/ha (SETVI [9]): 100%
- pest or weed control at 20 g/ha (AMARE [10]): 100%
- pest or weed control at 20 g/ha (ECHCG [11]): 80%
- pest or weed control at 5 g/ha (VIOTR [12]; 5 g/ha): 100%
- pest or weed control at 20 g/ha (VIOTR [12]): 100%
- pest or weed control at 20 g/ha (ALOMY [13]): 100%
- pest or weed control at 20 g/ha (MATIN [14]; dosage 20 g/ha): 100%
- pest or weed control at 80 g/ha (MATIN [14]): 100%
- pest or weed control at 20 g/ha (SETVI [15]): 100%
- pest or weed control at 80 g/ha (SETVI [15]): 100%
- pest or weed control at 80 g/ha (ABUTH [16]): 100%
- pest or weed control at 20 g/ha (ABUTH [16]; dosage 20 g/ha, scored visually after 3 weeks vs untreated controls, 100% = plants have died, 0% = like control plants, read-out: Pre-emergence action against ABUTH (herbicidal activity in percent)): 100%
- pest or weed control at 5 g/ha (DIGSA [17]; 5 g/ha): 90%
- pest or weed control at 20 g/ha (DIGSA [17]; 20 g/ha): 100%
- pest or weed control at 80 g/ha (PHBPU [18]): 100%
- pest or weed control at 80 g/ha (ECHCG [19]): 100%
- pest or weed control at 5 g/ha (MATIN [20]; dosage 5 g/ha): 80%
- pest or weed control at 20 g/ha (MATIN [20]; dosage 20 g/ha): 100%
- pest or weed control at 20 g/ha (DIGSA [21]; dosage 20 g/ha): 100%
- pest or weed control at 80 g/ha (DIGSA [21]; dosage 80 g/ha): 100%
- pest or weed control at 80 g/ha (AVEFA [22]): 100%
- pest or weed control at 80 g/ha (ALOMY [23]): 90%
- pest or weed control at 20 g/ha (HORMU [24]): 80%
- pest or weed control at 20 g/ha (VIOTR [25]): 100%
- pest or weed control at 80 g/ha (VIOTR [25]): 100%
- pest or weed control at 20 g/ha (AVEFA [26]): 100%
- pest or weed control at 20 g/ha (PHBPU [27]): 90%

Structure (SMILES): Cn1nnnc1NC(=O)c1ccc(Cl)c(C(=O)NC2CC2)c1Br [Example 1-351]
- pest or weed control at 20 g/ha (ABUTH [2]): 80%
- pest or weed control at 20 g/ha (AMARE [6]): 100%
- pest or weed control at 80 g/ha (AMARE [6]): 100%
- pest or weed control at 80 g/ha (VERPE [8]): 90%
- pest or weed control at 20 g/ha (SETVI [9]): 100%
- pest or weed control at 20 g/ha (AMARE [10]): 100%
- pest or weed control at 20 g/ha (ECHCG [11]): 100%
- pest or weed control at 20 g/ha (VIOTR [12]): 80%
- pest or weed control at 5 g/ha (ALOMY [13]; dosage 5 g/ha): 90%
- pest or weed control at 20 g/ha (ALOMY [13]): 90%
- pest or weed control at 80 g/ha (MATIN [14]): 100%
- pest or weed control at 20 g/ha (SETVI [15]): 100%
- pest or weed control at 80 g/ha (SETVI [15]): 100%
- pest or weed control at 80 g/ha (ABUTH [16]): 100%
- pest or weed control at 80 g/ha (ECHCG [19]): 100%
- pest or weed control at 80 g/ha (AVEFA [22]): 100%
- pest or weed control at 80 g/ha (ALOMY [23]): 100%
- pest or weed control at 20 g/ha (ALOMY [23]; 20 g/ha, scored visually after 3 weeks, 100% = plants have died, 0% = like control plants): 100%
- pest or weed control at 20 g/ha (VIOTR [25]): 100%
- pest or weed control at 80 g/ha (VIOTR [25]): 100%
- pest or weed control at 20 g/ha (AVEFA [26]): 80%
- pest or weed control at 20 g/ha (LOLRI [28]): 80%
